# US7563592B2, “Alizarin-based chromogenic substrates, their uses and composition containing same” (Biomerieux, S.A., priority 1999, dated 2009)
# Assays:
# [1] = system: Shigella flexneri; assay: β-galactosidase detection on semi-solid medium, clinical and environmental strains (Example 2); assay type: cell-based; settings: 50 mg/l + iron citrate 500 mg/l; 18 hours; 2 strains tested
# [2] = system: Escherichia coli; assay: as above; assay type: cell-based; settings: 50 mg/l + iron citrate 500 mg/l; 18 hours; 41 strains tested
# [3] = system: Yersinia pseudotuberculosis; assay type: cell-based; settings: 50 mg/l + iron citrate 500 mg/l; 18 hours; 3 strains tested
# [4] = system: Shigella sonnei; assay: β-galactosidase detection on semi-solid medium, clinical and environmental strains (Example 2); assay type: cell-based; settings: 50 mg/l + iron citrate 500 mg/l; 18 hours; 10 strains tested
# [5] = system: Salmonella spp.; assay: as above; assay type: cell-based; settings: 50 mg/l + iron citrate 500 mg/l; 18 hours; 64 strains tested
# [6] = system: Aeromonas hydrophila; assay: as above; assay type: cell-based; settings: 50 mg/l + iron citrate 500 mg/l; 18 hours; 3 strains tested
# [7] = system: Enterobacter cloacae; assay: as above; assay type: cell-based; settings: 50 mg/l + iron citrate 500 mg/l; 18 hours; 21 strains tested
# [8] = system: Aeromonas caviae; assay: as above; assay type: cell-based; settings: 50 mg/l + iron citrate 500 mg/l; 18 hours; 7 strains tested
# [9] = system: Serratia spp.; assay: as above; assay type: cell-based; settings: 50 mg/l + iron citrate 500 mg/l; 18 hours; 14 strains tested
# [10] = system: Proteus vulgaris; assay: as above; assay type: cell-based; settings: 50 mg/l + iron citrate 500 mg/l; 18 hours; 4 strains tested
# [11] = system: Serratia odorifera; assay: as above; assay type: cell-based; settings: 50 mg/l + iron citrate 500 mg/l; 18 hours; 1 strain tested
# [12] = system: Enterobacter aerogenes; assay: as above; assay type: cell-based; settings: 50 mg/l + iron citrate 500 mg/l; 18 hours; 9 strains tested
# [13] = system: Providencia rettgeri; assay: as above; assay type: cell-based; settings: 50 mg/l + iron citrate 500 mg/l; 18 hours; 3 strains tested
# [14] = system: Citrobacter diversus; assay: as above; assay type: cell-based; settings: 50 mg/l + iron citrate 500 mg/l; 18 hours; 9 strains tested
# [15] = system: Proteus mirabilis; assay: as above; assay type: cell-based; settings: 50 mg/l + iron citrate 500 mg/l; 18 hours; 16 strains tested
# [16] = system: Shigella dysenteriae; assay type: cell-based; settings: 50 mg/l + iron citrate 500 mg/l; 18 hours; 2 strains tested
# [17] = system: Serratia marcescens 042; assay: β-galactosidase detection in semi-solid Columbia medium (Example 1); assay type: cell-based
# [18] = system: Escherichia hermannii; assay: β-galactosidase detection on semi-solid medium, clinical and environmental strains (Example 2); assay type: cell-based; settings: 50 mg/l + iron citrate 500 mg/l; 18 hours; 1 strain tested
# [19] = system: Escherichia coli 115; assay: β-galactosidase detection in semi-solid Columbia medium (Example 1); assay type: cell-based
# [20] = system: Citrobacter freundii; assay: β-galactosidase detection on semi-solid medium, clinical and environmental strains (Example 2); assay type: cell-based; settings: 50 mg/l + iron citrate 500 mg/l; 18 hours; 16 strains tested
# [21] = system: Klebsiella pneumoniae 023; assay: β-glucosidase detection in API strip wells (Example 6); settings: 0.12 g/l + iron citrate 0.05 g/l
# [22] = system: Enterococcus faecium 009; assay: as above; settings: 0.12 g/l + iron citrate 0.05 g/l
# [23] = system: Listeria seeligeri 080; assay: as above; settings: 0.12 g/l + iron citrate 0.05 g/l
structure (smiles),measurement,setting,value
O=C1c2ccccc2C(=O)c2c1ccc(O[C@@H]1O[C@H](CO)[C@H](O)[C@H](O)[C@H]1O)c2O [Alizarin-2-β-D-galactoside],percentage of positive strains,[1],0%
same,percentage of positive strains,[2],95%
same,percentage of positive strains,[3],67%
same,percentage of positive strains,[4],100%
same,percentage of positive strains,[5],0%
same,percentage of positive strains,[6],100%
same,percentage of positive strains,[7],100%
same,percentage of positive strains,[8],86%
same,percentage of positive strains,[9],86%
same,percentage of positive strains,[10],0%
same,percentage of positive strains,[11],100%
same,percentage of positive strains,[12],100%
same,percentage of positive strains,[13],0%
same,percentage of positive strains,[14],89%
same,percentage of positive strains,[15],0%
same,percentage of positive strains,[16],0%
same,Color,"[17]; 0.01 g/l + iron citrate, 48 H",purple
same,Intensity,"[17]; 0.01 g/l + iron citrate, 48 H",0.3
same,Color,"[17]; 0.03 g/l + iron citrate, 18 H",purple
same,Intensity,"[17]; 0.03 g/l + iron citrate, 18 H",0.5
same,Color,"[17]; 0.03 g/l + iron citrate, 24 H",purple
same,Intensity,"[17]; 0.03 g/l + iron citrate, 24 H",1
same,Color,"[17]; 0.03 g/l + iron citrate, 48 H",purple
same,Intensity,"[17]; 0.03 g/l + iron citrate, 48 H",1.7
same,Color,"[17]; 0.05 g/l + iron citrate, 18 H",purple
same,Intensity,"[17]; 0.05 g/l + iron citrate, 18 H",1
same,Color,"[17]; 0.05 g/l + iron citrate, 24 H",purple
same,Intensity,"[17]; 0.05 g/l + iron citrate, 24 H",2.5
same,Color,"[17]; 0.05 g/l + iron citrate, 48 H",purple
same,Intensity,"[17]; 0.05 g/l + iron citrate, 48 H",3
same,Color,"[17]; 0.08 g/l + iron citrate, 18 H",purple
same,Intensity,"[17]; 0.08 g/l + iron citrate, 18 H",2
same,Color,"[17]; 0.08 g/l + iron citrate, 24 H",purple
same,Intensity,"[17]; 0.08 g/l + iron citrate, 24 H",2.5
same,Color,"[17]; 0.08 g/l + iron citrate, 48 H",purple
same,Intensity,"[17]; 0.08 g/l + iron citrate, 48 H",3.5
same,percentage of positive strains,[18],100%
same,Color,"[19]; 0.01 g/l + iron citrate, 18 H",purple
same,Intensity,"[19]; 0.01 g/l + iron citrate, 18 H",0.3
same,Color,"[19]; 0.01 g/l + iron citrate, 24 H",purple
same,Intensity,"[19]; 0.01 g/l + iron citrate, 24 H",0.3
same,Color,"[19]; 0.01 g/l + iron citrate, 48 H",purple
same,Intensity,"[19]; 0.01 g/l + iron citrate, 48 H",0.5
same,Color,"[19]; 0.03 g/l + iron citrate, 18 H",purple
same,Intensity,"[19]; 0.03 g/l + iron citrate, 18 H",2.7
same,Color,"[19]; 0.03 g/l + iron citrate, 24 H",purple
same,Intensity,"[19]; 0.03 g/l + iron citrate, 24 H",2.7
same,Color,"[19]; 0.03 g/l + iron citrate, 48 H",purple
same,Intensity,"[19]; 0.03 g/l + iron citrate, 48 H",3
same,Color,"[19]; 0.05 g/l + iron citrate, 18 H",purple
same,Intensity,"[19]; 0.05 g/l + iron citrate, 18 H",3.5
same,Color,"[19]; 0.05 g/l + iron citrate, 24 H",purple
same,Intensity,"[19]; 0.05 g/l + iron citrate, 24 H",3.5
same,Color,"[19]; 0.05 g/l + iron citrate, 48 H",purple
same,Intensity,"[19]; 0.05 g/l + iron citrate, 48 H",3.5
same,Color,"[19]; 0.08 g/l + iron citrate, 18 H",purple
same,Intensity,"[19]; 0.08 g/l + iron citrate, 18 H",4
same,Color,"[19]; 0.08 g/l + iron citrate, 24 H",purple
same,Intensity,"[19]; 0.08 g/l + iron citrate, 24 H",4
same,Color,"[19]; 0.08 g/l + iron citrate, 48 H",purple
same,Intensity,"[19]; 0.08 g/l + iron citrate, 48 H",4
same,percentage of positive strains,[20],100%
O=C1c2ccccc2C(=O)c2c1ccc(O[C@@H]1O[C@H](CO)[C@@H](O)[C@H](O)[C@H]1O)c2O [Alizarin-2-β-D-glucoside],Color observed,[21]; 4 H,Purple
same,Color observed,[21]; 24 H,Purple
same,Color observed,[22]; 4 H,Purple
same,Color observed,[22]; 24 H,Purple
same,Color observed,[23]; 4 H,Purple
same,Color observed,[23]; 24 H,Purple
